Test results published in patent US20030036567A1, “PROPYLENE GLYCOL AS AN AGENT TO STIMUATE THROMBOPOIESIS” (priority 2001, published 2003).
Like-named read-outs stand apart in the source and are kept apart here.

Key:
[1] = occupational exposure; cited from earlier work
[2] = single oral dose; cited from earlier work
[3] = system: CD34+CD38- hematopoietic stem cells; test: Colony formation from CD34+CD38- hematopoietic stem cells in semi-solid culture; format: cell-based, human; settings: 500 cells per ml, 14 days, Figure 1
Method: Example 3. CD34+CD38- cells isolated from human bone marrow (Poietic Technologies) were counted using a hemocytometer and plated in semi-solid culture media (MethoCult GF+H4435, StemCell Technologies, Vancouver, British Columbia) containing methylcellulose, fetal bovine serum, BSA, recombinant human (rh) SCF, rh GM-CSF, rh G-CSF, rh IL-3, rh IL-6, rh erythropoietin, and L-glutamine to which were added varying concentrations of propylene glycol (FW=76.1 Density=1.04g/ml Fisher Scientific). The cells were plated at a density of 500 cells per 1 ml per 35 mm petri dish. After incubation at 37 °C, 5% CO2 for 14 days, the dishes were scored for colony formation.

[4] = system: human proximal tubule (HPT) cells; settings: normally proliferating cultured HPT cells; cited from earlier work
[5] = Case report Patient 2, ingestion of antifreeze containing 30% propylene glycol; format: in vivo, human
Method: Example 2. A person ingested an unknown amount of the antifreeze Freeze Proof containing 30% propylene glycol earlier. Following ingestion, the child acted normally and ate well until approximately 6 hours later when they developed slurred speech, right facial drooping, an abnormal, wobbling gait, and was noted walking into walls and unable sit up by […]. They were the brought to the emergency room approximately 12 hours after ingestion with the above symptoms. At that time a toxicological screen was obtained which was qualitatively positive for propylene glycol. They were then transferred to University Medical Center where their blood pressure was 106/70, pulse was 113, respiration was 18, temperature was 36.3 C. At that time they had slurred speech, good facial symmetry, intact cranial nerve examination, but an unsteady gait, and was drowsy and lethargic but arousable. Their pupils were equal and reactive to light. […] The child was given a charcoal and sorbitol lavage through an oral naso-gastric tube as well as IV fluid therapy with normal saline. Within 4 hours of admission, the child was able to walk and talk well without evidence of slurred speech. The following morning the child was discharged from the hospital with no evidence of the symptoms originally observed.

[6] = human, in vivo
Description: Example 1. Patient 1 was a person with a history of congenital aqueductal stenosis diagnosed and treated with a Torkildson shunt. Nineteen months prior to admission, they sustained a minor head injury in a motor vehicle accident resulting in a shunt malfunction with recurrent headaches, necessitating treatment with a ventriculoperitoneal shunt. Consequent subdural hygromas became infected, leaving the patient with marked cognitive and motor impairments. They were transferred to a rehabilitation facility six months prior to admission to our hospital. […] All biochemical and hematologic abnormalities resolved within 36 hours. The patient remained well until four weeks prior to admission when they again developed fever (106), tachycardia (169 bpm), and tachypnea. Similar biochemical and hematological abnormalities were noted including a white blood cell count of 25,000 (per mm^3) and a thrombocyte count of 469,000 (per mm^3). Cultures of blood, urine, and CSF were negative. Within 36 hours the patient returned to baseline. Similar episodes were noted to occur at roughly seven day intervals. CT scans of chest, abdomen and pelvis, and a gallium scan were unremarkable. After the fourth recorded episode, the patient was transferred to our neurological unit for evaluation of an occult ventriculoperitoneal shunt infection or possible hypothalamic dysregulation.
On transfer, the patient was noted to have BP 120/80, HR 88 bpm and T 37.5. The general physical examination was notable only for generalized pallor and contractures of the lower extremities. They were awake but only able to follow single midline one-step commands. […] The patient was treated with kayexalate. The anion gap acidosis resolved within twelve hours. At that time, the patient was noted to develop oliguric renal insufficiency with a BUN of 41 (mg/dl) and creatinine of 2.2 (mg/dl). […] An unusual "green stool" which caked the patient's rectum was collected. Samples of the patient's blood, urine, and stool (collected 17 hours after the recorded onset of symptoms) were sent for toxicologic analysis. […]
In addition, prominent throughout the aspirate were eosinophils, mast cells as well as eo-basophils. Megakaryocytes were abundant.

[7] = accidental intoxication, cited from earlier work
[8] = system: Murine bone marrow cells; test: Long term culture initiating cell assay (LTCIC); format: cell-based, C57bl mice; settings: 500 ng/ml, Figure 2
Method: Example 4. Murine bone marrow was obtained from the femurs of adult C57bl mice, suspended in Myelocult (Stem Cell Technologies, Vancouver Canada), and cells were isolated by centrifugation at 500g for 10 minutes at 4 °C. Viability was determined by Trypan blue exclusion and aliquots were taken for plating efficiency in methylcellulose culture (MethoCult, Stem Cell Technologies). The remaining cell suspension was plated at a density of 6.25 x10^4/well into 24 well plates containing irradiated FBMD-1 feeder layers. To appropriate wells, propylene glycol was added to final concentration of 500 ng/ml. At weekly interval the cells were demidepopulated and fed with 250μl fresh medium. The harvested cells were washed with PBS and added to a 2.5 ml tube of MethoCult. Two 35mm petri dishes containing 1 ml each were plated from each tube. After 10 days incubation at 37 °C, 5% CO2, the dishes were scored for colonies.

[9] = diet containing 6 or 12% propylene glycol; cited from earlier work

| BUN [6] [mg/dL] | LDH [6] [U/liter] | SGOT [6] [U/liter] | anion gap [6] | bicarbonate [6] [mmol/L] | creatinine [6] [mg/dL] | creatinine kinase [6] [U/liter] | hematologic response to acute exposure [6] | potassium [6] [mmol/L] | Structure (SMILES) | bone marrow findings [1] | spleen weight [2] | effect on CFU formed from CD34+ cells [3] | concentration with toxic effects [4] [µM] | biochemical or hematological outcome [5] | bone marrow studies [6] | WBC ([7]; chart review) | anion gap [7] | increase of total cell number on the cultures over cells not exposed [8] [%] | erythrocyte effects [9] |
| --- | --- | --- | --- | --- | --- | --- | --- | --- | --- | --- | --- | --- | --- | --- | --- | --- | --- | --- | --- |
| – | – | – | – | – | – | – | – | – | COC(C)COC(C)CO (stereo not shown) [dipropylene glycol monomethyl ether] | generally hypocellular marrow with decreased myeloid to erythroid ratios and an abundance of stored iron | – | – | – | – | – | – | – | – | – |
| 41 | 528 | 151 | 24 | 16 | 2.2 | 8400 | dramatic leukocytosis and thrombocytosis | 5.8 | CC(O)CO (stereo not shown) [propylene glycol, 1,2-propanediol] | – | significant increase in spleen weight | increased CFU formed from CD34+ cells | 50000 | no biochemical or hematological abnormalities | relatively hypercellular marrow with increased myeloid precursors and megakaryocytes | 25,000 per mm^3 | 28 | 50 | accelerated erythropoiesis and reduction in red blood cell life span |
